Reference: patent US20260317324A1, “BIFUNCTIONAL COMPOUNDS FOR DEGRADING BRAF VIA UBIQUITIN PROTEOSOME PATHWAY” (Nurix Therapeutics, Inc., priority 2023, published 2026)

What was measured:
Assay type in all cases: cell-based
[1] = target: T1, BRAF V600E (Homo sapiens, UniProt P15056, V600E); assay: BRAF HiBiT degradation assay, C-terminal HiBiT-tagged BRAF V600E A375 cells (clone 1F10), Nano-Glo HiBiT Lytic assay; conditions: for Dmax: A-375
T1 construct: endogenous C-terminal HiBiT fusion tag on BRAF V600E allele; endogenous in cells; host or cells: A375 clone 1F10 (CRISPR-Cas9 knock-in of the HiBiT tag; parental A375 from ATCC)
Procedure, shortened: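 Luminescence read-out: Nano-Glo HiBiT lytic reagent with LgBiT, 10 min at room temperature. Signal normalised to DMSO-treated tagged cells, with wildtype A375 as background. Cells are endogenously tagged BRAF V600E A375 clone 1F10. Compounds were tested from 1 μM to 0.01 nM; Dmax is observed % degraded at maximal effect.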

[2] = target: T2, BRAF G466V (Homo sapiens, UniProt P15056, G466V); assay: BRAF HiBiT degradation assay, C-terminal HiBiT-tagged BRAF G466V overexpressed in HCT-116 BRAF−/− cells (clone 8), Nano-Glo HiBiT Lytic assay
T2 construct: Horizon Discovery (HCT-116 BRAF−/− cells); host or cells: HCT-116 BRAF−/− cells, clone 8, lentiviral transduction
Procedure, shortened: (§1)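 Cells 3,000/well, 24 h at 37 °C; cpds 1 μM–0.01 nM, 11-pt half-log, duplicate, 0.2% DMSO. Readout: HiBiT lytic luminescence, 10 min at RT. Normalized to DMSO-treated tagged cells, with DMSO-treated wild-type HCT-116 as background. DC50 = fitted concentration at Y=50; Obs. Dmax = % degraded at maximal effect.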

[3] = target: T3, BRAF D594G (Homo sapiens, UniProt P15056, D594G); assay: BRAF HiBiT degradation assay, C-terminal HiBiT-tagged BRAF D594G overexpressed in HCT-116 BRAF−/− cells (clone 63), Nano-Glo HiBiT Lytic assay
T3 construct: Horizon Discovery (HCT-116 BRAF−/− cells); host or cells: HCT-116 BRAF−/− cells, clone 63, lentiviral transduction
Procedure, shortened: as §1

[4] = target: T4, BRAF G469A (Homo sapiens, UniProt P15056, G469A); assay: BRAF HiBiT degradation assay, C-terminal HiBiT-tagged BRAF G469A overexpressed in HCT-116 BRAF−/− cells (clone 34), Nano-Glo HiBiT Lytic assay
T4 construct: Horizon Discovery (HCT-116 BRAF−/− cells); host or cells: HCT-116 BRAF−/− cells, clone 34, lentiviral transduction
Procedure, shortened: as §1

[5] = A375 (BRAF V600E, Class 1), DC50 at 50% degradation
[6] = A375 (BRAF V600E, Class 1), observed Dmax, % protein degraded relative to DMSO control
[7] = BRAF G466V (Class 3), HCT-116 BRAF−/− cells, DC50 at 50% degradation
[8] = BRAF G466V (Class 3), HCT-116 BRAF−/− cells, observed Dmax relative to DMSO control
[9] = BRAF D594G (Class 3), HCT-116 BRAF−/− cells, DC50 at 50% degradation
[10] = BRAF D594G (Class 3), HCT-116 BRAF−/− cells, observed Dmax relative to DMSO control
[11] = BRAF G469A (Class 2), HCT-116 BRAF−/− cells, DC50 at 50% degradation
[12] = BRAF G469A (Class 2), HCT-116 BRAF−/− cells, observed Dmax relative to DMSO control
[13] = A375 (BRAF V600E), DC50 at 50%: fitted conc. at Y=50
[14] = A375 (BRAF V600E), percentage protein degraded at maximal compound effect relative to DMSO
[15] = BRAF G466V, DC50 at 50%: fitted conc. at Y=50
[16] = HCT-116, BRAF G466V, percentage protein degraded at maximal compound effect relative to DMSO
[17] = BRAF D594G, DC50 at 50%: fitted conc. at Y=50
[18] = HCT-116, BRAF D594G, percentage protein degraded at maximal compound effect relative to DMSO
[19] = Class 2, BRAF G469A, DC50 at 50%: fitted conc. at Y=50
[20] = HCT-116, Class 2, BRAF G469A, percentage protein degraded at maximal compound effect relative to DMSO

T1 sequence (P15056 whole entry V600E, the tested form may be a part): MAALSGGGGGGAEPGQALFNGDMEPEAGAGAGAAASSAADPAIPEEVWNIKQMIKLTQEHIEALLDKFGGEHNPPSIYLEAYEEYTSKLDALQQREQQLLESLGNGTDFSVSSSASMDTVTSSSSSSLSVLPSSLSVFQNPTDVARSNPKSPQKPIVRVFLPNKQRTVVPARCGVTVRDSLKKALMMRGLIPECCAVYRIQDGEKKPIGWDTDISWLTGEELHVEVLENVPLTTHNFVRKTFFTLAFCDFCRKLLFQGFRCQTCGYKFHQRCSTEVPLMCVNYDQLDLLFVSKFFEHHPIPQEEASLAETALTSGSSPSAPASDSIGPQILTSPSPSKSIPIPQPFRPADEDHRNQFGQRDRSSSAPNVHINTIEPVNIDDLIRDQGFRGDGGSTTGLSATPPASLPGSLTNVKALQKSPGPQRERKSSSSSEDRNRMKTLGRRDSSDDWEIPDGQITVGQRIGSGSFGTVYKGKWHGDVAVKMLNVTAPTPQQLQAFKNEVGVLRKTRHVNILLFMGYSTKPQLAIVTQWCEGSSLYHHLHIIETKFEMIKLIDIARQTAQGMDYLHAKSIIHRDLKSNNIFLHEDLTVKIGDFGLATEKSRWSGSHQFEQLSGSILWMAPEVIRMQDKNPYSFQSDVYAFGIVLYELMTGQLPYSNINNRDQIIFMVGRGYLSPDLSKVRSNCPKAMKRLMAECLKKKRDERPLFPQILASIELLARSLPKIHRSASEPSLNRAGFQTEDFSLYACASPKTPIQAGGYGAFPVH
T3 sequence (P15056 whole entry D594G): as the sequence (P15056 whole entry V600E, the tested form may be a part) above, with D594G, E600V counted along it
T2 sequence (P15056 whole entry G466V): as the sequence (P15056 whole entry V600E, the tested form may be a part) above, with G466V, E600V counted along it
T4 sequence (P15056 whole entry G469A): as the sequence (P15056 whole entry V600E, the tested form may be a part) above, with G469A, E600V counted along it

SMILES	DC50 [1, 5] [nM]	Dmax [1, 6] [%]	DC50 [2, 7] [nM]	Dmax [2, 8] [%]	DC50 [3, 9] [nM]	Dmax [3, 10] [%]	DC50 [4, 11] [nM]	Dmax [4, 12] [%]	DC50 [1, 13] [nM]	Dmax [1, 14] [%]	DC50 [2, 15] [nM]	Dmax [2, 16] [%]	DC50 [3, 17] [nM]	Dmax [3, 18] [%]	DC50 [4, 19] [nM]	Dmax [4, 20] [%]
CCCS(=O)(=O)Nc1cccc(-c2nc(C(C)(C)C)sc2-c2ccnc(Nc3cnn(C4CCN(CC5CCN(c6ccc7c(=O)n(C8CCC(=O)NC8=O)ccc7c6)CC5)CC4)c3)n2)c1F (racemic) [Compound 80, Rac-N-[3-(2-tert-butyl-5-{2-[(1-f{1-[(1-{2-[(3R)-2,6-dioxopiperidin-3-yl]-1-oxo-1,2-dihydroisoquinolin-6-yl}piperidin-4-yl)methyl]piperidin-4-yl}-1H-pyrazol-4-yl)amino]pyrimidin-4-yl}-1,3-thiazol-4-yl)-2-fluorophenyl]propane-1-sulfonamide]									< 10	> 70	> 500	30 to 70	> 500	30 to 70	> 500	< 30
CCCS(=O)(=O)Nc1cccc(-c2cn(-c3ccc(N4CCN(CC5CCN(c6ccc([C@H]7CCC(=O)NC7=O)cn6)CC5)CC4)cc3)nc2-c2ccncc2)c1F [Compound 2, N-{3-[1-(4-{4-[(1-{5-[(3R)-2,6-dioxopiperidin-3-yl]pyridin-2-yl}piperidin-4-yl)methyl]piperazin-1-yl}phenyl)-3-(pyridin-4-yl)-1H-pyrazol-4-yl]-2-fluorophenyl}propane-1-sulfonamide]									50 to 500	> 70	10 to 50	30 to 70	10 to 50	30 to 70	10 to 50	30 to 70
CCCS(=O)(=O)Nc1cccc(-c2nc(-c3ccc(N4CCN(CC5CCN(c6ccc([C@@H]7CCC(=O)NC7=O)cc6)CC5)CC4)cc3)sc2-c2ccnc(N)n2)c1F [Compound 186, N-{3-[5-(2-aminopyrimidin-4-yl)-2-(4-{4-[(1-{4-[(3S)-2,6-dioxopiperidin-3-yl]phenyl}piperidin-4-yl)methyl]piperazin-1-yl}phenyl)-1,3-thiazol-4-yl]-2-fluorophenyl}propane-1-sulfonamide]									10 to 50	> 70	> 500	30 to 70	> 500	30 to 70	> 500	< 30
CCCS(=O)(=O)Nc1cccc(-c2nc(C(C)(C)C)sc2-c2ccnc(Nc3cccc(OC4CCN(CC5(C)CCN(c6ccc(C7CCC(=O)NC7=O)cn6)CC5)CC4)c3)n2)c1F (racemic) [Compound 68, Rac-N-{3-[2-tert-butyl-5-(2-{[3-({1-[(1-{5-[(3R)-2,6-dioxopiperidin-3-yl]pyridin-2-yl}-4-methylpiperidin-4-yl)methyl]piperidin-4-yl}oxy)phenyl]amino}pyrimidin-4-yl)-1,3-thiazol-4-yl]-2-fluorophenyl}propane-1-sulfonamide]									10 to 50	> 70	50 to 500	30 to 70	> 500	30 to 70	50 to 500	30 to 70
CCCS(=O)(=O)Nc1cccc(-c2nc(C(C)(C)C)sc2-c2ccnc(Nc3cnn(C4CCN(CC5CCN(c6ccc(C(=O)N[C@@H]7CCC(=O)NC7=O)nc6)CC5)CC4)c3)n2)c1F [Compound 67, 5-{4-[(4-{4-[(4-{2-tert-butyl-4-[2-fluoro-3-(propane-1-sulfonamido)phenyl]-1,3-thiazol-5-yl}pyrimidin-2-yl)amino]-1H-pyrazol-1-yl}piperidin-1-yl)methyl]piperidin-1-yl}-N-[(3R)-2,6-dioxopiperidin-3-yl]pyridine-2-carboxamide]									< 10	30 to 70	> 500	< 30	> 500	30 to 70	> 500	< 30
CCCS(=O)(=O)Nc1cccc(-c2cn(-c3ccc(N4CCN(CC5CCN(c6ccc(C7CCC(=O)NC7=O)c(F)c6)CC5)CC4)cc3)nc2-c2ccncc2)c1F (racemic) [Compound 19, Rac-N-{3-[1-(4-{4-[(1-{4-[(3R)-2,6-dioxopiperidin-3-yl]-3-fluorophenyl}piperidin-4-yl)methyl]piperazin-1-yl}phenyl)-3-(pyridin-4-yl)-1H-pyrazol-4-yl]-2-fluorophenyl}propane-1-sulfonamide]									10 to 50	> 70	10 to 50	30 to 70	10 to 50	30 to 70	> 500	30 to 70
CCCS(=O)(=O)Nc1cccc(-c2cn(-c3ccc(N4CCN(CC5CCN(c6ccc(C7CCC(=O)NC7=O)cn6)CC5)CC4)nc3)nc2-c2ccncc2)c1F (racemic) [Compound 3, Rac-N-{3-[1-(6-{4-[(1-{5-[(3R)-2,6-dioxopiperidin-3-yl]pyridin-2-yl}piperidin-4-yl)methyl]piperazin-1-yl}pyridin-3-yl)-3-(pyridin-4-yl)-1H-pyrazol-4-yl]-2-fluorophenyl}propane-1-sulfonamide]									50 to 500	> 70	10 to 50	30 to 70	10 to 50	30 to 70	> 500	30 to 70

More lines, now with the values ahead:

DC50 [1, 5] [nM]	Dmax [1, 6] [%]	DC50 [2, 7] [nM]	Dmax [2, 8] [%]	DC50 [3, 9] [nM]	Dmax [3, 10] [%]	DC50 [4, 11] [nM]	Dmax [4, 12] [%]	DC50 [1, 13] [nM]	Dmax [1, 14] [%]	DC50 [2, 15] [nM]	Dmax [2, 16] [%]	DC50 [3, 17] [nM]	Dmax [3, 18] [%]	DC50 [4, 19] [nM]	Dmax [4, 20] [%]	SMILES
10 to 50	> 70	> 500	< 30	> 500	< 30	> 500	< 30									CCCS(=O)(=O)Nc1cccc(-c2nc(C3CCC4(CC3)CCN(C[C@H]3CC[C@H](Oc5ccc(C6CCC(=O)NC6=O)cn5)CC3)CC4)sc2-c2ccnc(N)n2)c1F (mixture of isomers) [Compound 257, N-{3-[5-(2-aminopyrimidin-4-yl)-2-(3-{[(1r,4r)-4-({5-[(3RS)-2,6-dioxopiperidin-3-yl]pyridin-2-yl}oxy)cyclohexyl]methyl}-3-azaspiro[5.5]undecan-9-yl)-1,3-thiazol-4-yl]-2-fluorophenyl}propane-1-sulfonamide]
< 10	> 70	> 500	30 to 70	> 500	< 30	> 500	< 30									O=C1CC[C@H](c2ccc(N3CCC(CN4CCCN(c5ccc(-n6cc(-c7cc(Cl)cc(NS(=O)(=O)N8CCCC8)c7F)c(-c7ccncc7)n6)c(F)c5)CC4)CC3)cc2)C(=O)N1 [Compound 346, N-{5-chloro-3-[1-(4-{4-[(1-{4-[(3R)-2,6-dioxopiperidin-3-yl]phenyl}piperidin-4-yl)methyl]-1,4-diazepan-1-yl}-2-fluorophenyl)-3-(pyridin-4-yl)-1H-pyrazol-4-yl]-2-fluorophenyl}pyrrolidine-1-sulfonamide]
< 10	> 70	50 to 500	30 to 70	> 500	30 to 70	> 500	30 to 70									CCCS(=O)(=O)Nc1cccc(-c2nc(C3CCN(C(=O)C4CCN(CC5CCN(c6ccc(C7CCC(=O)NC7=O)cn6)CC5)CC4)CC3)sc2-c2ccnc(N)n2)c1F (racemic) [Compound 261, Rac-N-{3-[5-(2-aminopyrimidin-4-yl)-2-(1-{1-[(1-{5-[(3R)-2,6-dioxopiperidin-3-yl]pyridin-2-yl}piperidin-4-yl)methyl]piperidine-4-carbonyl}piperidin-4-yl)-1,3-thiazol-4-yl]-2-fluorophenyl}propane-1-sulfonamide]
< 10	> 70	< 10	> 70	< 10	30 to 70	10 to 50	30 to 70									O=C1CCC(c2ccc(N3CCC(CN4CCN(c5ccc(-n6cc(-c7cc(Cl)cc(NS(=O)(=O)N8CCCC8)c7F)c(-c7ccncc7)n6)cc5)CC4)CC3)cc2F)C(=O)N1 (racemic) [Compound 348, Rac-N-{5-chloro-3-[1-(4-{4-[(1-{4-[(3R)-2,6-dioxopiperidin-3-yl]-3-fluorophenyl}piperidin-4-yl)methyl]piperazin-1-yl}phenyl)-3-(pyridin-4-yl)-1H-pyrazol-4-yl]-2-fluorophenyl}pyrrolidine-1-sulfonamide]
